Assay [1] has as its target ROCK2 (human) (UniProt O75116). In words: Assessment of ROCK2 Kinase Activity using Luciferin-Luciferase Assay.
Assay [2] has as its target ROCK2 (human) (UniProt O75116). In words: Assessment of ROCK2 Kinase Activity using IMAP Assay.

This is an account of results in the Kinase Knowledgebase extract (Sharma et al. 2016).

Each structure is given as a SMILES string.

Sequence of ROCK2 (human) (O75116 whole entry, looked up): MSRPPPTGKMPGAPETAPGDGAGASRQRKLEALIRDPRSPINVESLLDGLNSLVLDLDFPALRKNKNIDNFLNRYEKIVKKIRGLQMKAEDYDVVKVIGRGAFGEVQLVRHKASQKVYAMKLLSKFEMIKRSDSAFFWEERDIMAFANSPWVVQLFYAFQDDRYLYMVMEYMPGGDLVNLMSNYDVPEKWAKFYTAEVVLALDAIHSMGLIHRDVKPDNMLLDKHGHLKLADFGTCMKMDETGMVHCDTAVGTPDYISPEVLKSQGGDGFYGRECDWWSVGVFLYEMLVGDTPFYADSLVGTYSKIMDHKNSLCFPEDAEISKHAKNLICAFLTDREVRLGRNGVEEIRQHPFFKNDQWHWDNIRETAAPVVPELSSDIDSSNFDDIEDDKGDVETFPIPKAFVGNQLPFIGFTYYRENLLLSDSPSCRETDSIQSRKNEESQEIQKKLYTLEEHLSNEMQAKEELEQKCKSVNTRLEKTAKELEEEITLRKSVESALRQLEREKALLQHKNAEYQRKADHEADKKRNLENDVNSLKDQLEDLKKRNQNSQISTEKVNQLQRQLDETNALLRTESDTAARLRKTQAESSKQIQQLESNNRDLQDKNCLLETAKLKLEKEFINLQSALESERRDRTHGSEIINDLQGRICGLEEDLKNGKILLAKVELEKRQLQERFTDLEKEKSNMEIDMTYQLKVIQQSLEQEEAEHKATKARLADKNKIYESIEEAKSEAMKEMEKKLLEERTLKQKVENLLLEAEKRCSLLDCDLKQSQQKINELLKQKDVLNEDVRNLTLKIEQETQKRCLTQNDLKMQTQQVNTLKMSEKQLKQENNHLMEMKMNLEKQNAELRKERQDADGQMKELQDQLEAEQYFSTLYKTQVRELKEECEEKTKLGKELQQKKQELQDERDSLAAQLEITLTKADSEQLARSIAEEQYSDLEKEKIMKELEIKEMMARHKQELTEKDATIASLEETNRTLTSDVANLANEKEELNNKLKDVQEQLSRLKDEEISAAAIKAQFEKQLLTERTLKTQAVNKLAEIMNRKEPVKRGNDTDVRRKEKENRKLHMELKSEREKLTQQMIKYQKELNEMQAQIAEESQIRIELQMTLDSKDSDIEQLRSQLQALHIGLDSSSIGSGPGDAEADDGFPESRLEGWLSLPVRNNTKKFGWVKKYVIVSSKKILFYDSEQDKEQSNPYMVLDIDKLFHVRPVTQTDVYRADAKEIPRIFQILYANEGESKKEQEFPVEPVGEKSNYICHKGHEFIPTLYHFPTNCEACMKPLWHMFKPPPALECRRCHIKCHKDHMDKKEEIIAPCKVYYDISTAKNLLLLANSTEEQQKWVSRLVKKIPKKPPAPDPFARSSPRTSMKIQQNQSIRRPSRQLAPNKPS

Turning to `CN1CCc2nc(NC(=O)c3cccc([C@H]4CCCN4C(=O)c4nnn(-c5nonc5N)c4-c4ccccc4)c3)sc2C1`, the results for the IC50 at ROCK2 (human) [1] and against ROCK2 (human) [2] were 6 nM and 44 nM, respectively.

For `CN1CCc2nc(NC(=O)c3cccc([C@H]4CCCN4C(=O)c4ccc5cc(O)ccc5c4)c3)sc2C1`, the results for the IC50 against ROCK2 (human) [1] and on ROCK2 (human) [2] were 2.1 nM and 4 nM, respectively.

Regarding `COc1ccc(C(=O)N2CCC[C@@H]2c2cccc(C(=O)Nc3nc4c(s3)C[C@@H](N3CCOCC3)CC4)c2)cc1Cl`, the IC50 against ROCK2 (human) [1] came to 5.8 nM; at ROCK2 (human) [2], 7.9 nM.

For `CN1CCc2nc(NC(=O)c3cccc([C@H]4CCCN4C(=O)c4csc(-c5cccnc5)n4)c3)sc2C1`, the IC50 on ROCK2 (human) [1] turned out to be 4 nM; at ROCK2 (human) [2], 13 nM.

With `N#Cc1cccc2c1CCN2C(=O)N1CCC[C@@H]1c1cccc(C(=O)Nc2nc3c(s2)C[C@@H](N2CCOCC2)CC3)c1`, the IC50 on ROCK2 (human) [2] came out at 2.9 nM.

As to `CN1CCc2nc(NC(=O)c3cccc([C@H]4CCCN4C(=O)c4csc(-c5ccncc5)n4)c3)sc2C1`, the IC50 on ROCK2 (human) [1] turned out to be 6.1 nM; against ROCK2 (human) [2] it was 16 nM.

For the compound `CN1CCc2nc(NC(=O)c3cccc([C@H]4CCCN4C(=O)c4ccc(-c5cnco5)cc4)c3)sc2C1`, the values for the IC50 on ROCK2 (human) [1] and at ROCK2 (human) [2] were 2.6 nM and 11.2 nM, respectively.

In the case of `CN1CCc2nc(NC(=O)c3cccc([C@H]4CCCN4C(=O)c4cc(-c5ccncc5)[nH]n4)c3)sc2C1`, the IC50 on ROCK2 (human) [2] worked out at 4.1 nM.

In the case of `N#Cc1ccc(NC(=O)COc2cccc(C(=O)Nc3nc4c(s3)C[C@@H](NCCC(F)(F)F)CC4)c2)cc1`, the results for the IC50 on ROCK2 (human) [1] and against ROCK2 (human) [2] were 5.1 nM and 32 nM, respectively.

In turn, `Cc1nnnn1-c1ccc(C(=O)N2CCC[C@@H]2c2cccc(C(=O)Nc3nc4c(s3)CN(C)CC4)c2)cc1` came in with an IC50 against ROCK2 (human) [1] of 91.4 nM.

The compound `COc1ccc(C(=O)N2CCC[C@@H]2c2cccc(C(=O)Nc3nc4c(s3)CN(C)CC4)c2)cc1C` gave an IC50 against ROCK2 (human) [1] of 45.1 nM.

In the case of `COc1ccc(C(=O)N2CCC[C@@H]2c2cccc(C(=O)Nc3nc4c(s3)CN(C)CC4)c2)cc1Cl`, on ROCK2 (human) [1], the IC50 is 38 nM.

On to `CN1CCc2nc(NC(=O)c3cccc([C@H]4CCCN4C(=O)c4cn5cc(C(N)=O)ccc5n4)c3)sc2C1`, for which the results for the IC50 on ROCK2 (human) [1] and against ROCK2 (human) [2] were 2.5 nM and 7.4 nM, respectively.

Compound `CN1CCc2nc(NC(=O)c3cccc([C@H]4CCCN4C(=O)c4cccc(-c5cccnc5)c4)c3)sc2C1` displayed an IC50 against ROCK2 (human) [1] of 80.4 nM.

Regarding `COc1ccc(C(=O)N2CCC[C@@H]2c2cccc(C(=O)Nc3nc4c(s3)CN(C)CC4)c2)cc1OC`, the IC50 on ROCK2 (human) [1] was found to be 30.7 nM.

As to `CN1CCc2nc(NC(=O)c3cccc(OCC(=O)Nc4ccc(C#N)cc4)c3)sc2C1`, the 50% inhibitory concentration (IC50) at ROCK2 (human) [1] worked out at 23.4 nM.

`N#Cc1cccc(NC(=O)N2CCC[C@@H]2c2cccc(C(=O)Nc3nc4c(s3)C[C@@H](N3CCOCC3)CC4)c2)c1` yielded an IC50 on ROCK2 (human) [2] of 0.6 nM.

With `N#CCCN[C@H]1CCc2nc(NC(=O)c3cccc(OCC(=O)Nc4ccc(C#N)cc4)c3)sc2C1`, the IC50 amounted to 5.2 nM against ROCK2 (human) [1] and 27 nM on ROCK2 (human) [2].

For the compound `CN1CCc2nc(NC(=O)c3cccc([C@H]4CCCN4C(=O)Nc4cccc(C(N)=O)c4)c3)sc2C1`, at ROCK2 (human) [1], the 50% inhibitory concentration (IC50) came to 94.6 nM.

In turn, `CN1CCc2nc(NC(=O)c3cccc([C@H]4CCCN4C(=O)c4ccc(-n5ccnc5)cc4)c3)sc2C1` returned an IC50 against ROCK2 (human) [1] of 14.5 nM.
